Measurements published in patent US10806121B2, “Animal litter containing a pheromone composition” (Sergeant's Pet Care Products, LLC, priority 2014, dated 2020).

System: cats
Test: Study 1: cat litter preference, pheromone-treated litter versus control litter
Assay type: in vivo
Procedure: In Study 1, four different treatments were tested: Androstenone (ANDRO); cat urinary pheromone, 3-mercapto-3-methyl-1-butanol (CAT); rabbit pheromone, 2-methylbut-2-enal (RP); and both the cat urinary pheromone and the rabbit pheromone (CAT+RP). 40 individual cats were used in this study to assess their preference to or aversion from a control litter versus a litter under one of the four treatments. Each treatment was tested with 10 cats. Litter was divided into 3 lb aliquots, and each aliquot was either used as a control or was mixed with a pheromone (or a pheromone combination) to be tested at a level of 10 μg/3-lb (or 7.3 μg/kg).
On Day 0, each cat was placed into an assigned chamber randomly placed with two litter boxes, one control and one treated. Each of the two litter boxes was weighed and the weight was recorded. The camera in the chamber was properly aligned to give a full view of the chamber and started taping on Day 0. On Day 1, 24 hours after the start of taping on Day 0, each of the two litter boxes in the chamber was weighed and the weight was recorded. On Day 2, 48 hours after the start of taping on Day 0, each of the two litter boxes in the chamber was again weighed. Litter can be disposed of after weighing on Day 2, and the camera was then turned off. The weights of the litter boxes over the 48 hours were used to determine whether the litter was used or not, and at which preference level.
The data were expressed as both a percentage preference (% of the cats using the treated litter in each treatment group) and by the weight of the litter (the litter gets heavier as it is soiled). It was expected that if the added pheromone had no effect on litter preference, 50% of the cats would use the treated litter and 50% would use the control litter. […] Further, the weight difference between a control litter or litter under treatment was used to show the relative strength of the effect of a particular treatment on cat's litter use behavior. During the study, some cats (N=3; 2 in CAT+RP and 1 in RP) spilled their litter and their data were unreliable and were not included.

[1] = treated versus control litter weight after 2 days

C/C=C(\C)C=O [RP, 2-methylbut-2-enal]
increase of litter attraction (7 out of 9 cats chose treated litter): more than 3.5 times
percentage preference (% of the cats using the treated litter) (litter treated at 10 μg/3-lb (7.3 μg/kg), choice against control litter over 48 hours, 50% = no effect): 78%
Litter Type Use, g, TRT (weights of litter after 2 days) (treated litter box, 10 μg/3-lb, SE = 0.023): 0.76 g
Relative Difference, % [1]: 138%
Significantly Different [1]: Yes
effect on cats' litter preference (treated versus control litter, 48 hours): highly preferred over the control litter
